# US12460177B2, “Composition for promoting efficiency of somatic cell replication” (SEOUL NATIONAL UNIVERSITY HOSPITAL, priority 2018, dated 2025)
# Test system: H3K9me3 / H3K4me3 binding at the Apobec1 (demethylase) promoter region
# Assay: ChIP-PCR with Apobec1 promoter primers in human mesenchymal stem cells treated with endothelin
# Assay type: cell-based
# Settings: endothelin treatment, FIG. 1
# From the text: Human mesenchymal stem cells were transfected with siRNA of SMARCA4 or SMARCD2, treated with endothelin, and then harvested. In the present invention, human mesenchymal stem cells (Poietics™ Human Mesenchymal Stem Cells, Lonza) were used. The cells were selected by conducting a human mesenchymal stem cell identification experiment, and identified and classified as human bone marrow-derived stem cells after the expression of a positive cell marker (CD29, CD90, CD44, CD73, CD105 or CD166) for mesenchymal stem cells, the negative identification by a cell marker (CD34, CD45, CD14, HLA-DR or CD19), and the confirmation of multipotency of mesenchymal stem cells.
# Genomic DNA was extracted from the recovered cells, and reacted with a H3K9me3 or H3K4me3 antibody [anti-H3K9me3 (Abcam: cat. no. ab8898), anti-H3K4me3 (Abcam; cat. no. ab8580) or normal rabbit IgG (Cell Signaling Technology: cat. no. #2729): negative control], followed by ChIP-PCR performed using Apobec1 promoter primers that are able to confirm the binding of H3K9me3 or H3K4me3. […]
# Subsequently, the resulting product was heated at 65° C. for 4 hours to remove a crosslink. DNA fragments were collected using a PCR purification kit (Qiagen) and analyzed using qPCR and semi-quantitative PCR, and the results are shown in FIG. 1.
substance,measurement,setting,value
"endothelin (HLDIIW; listed as Mus musculus) [peptide generated in vascular endothelial cells, 21 amino acid residues, two S—S bonds, known as a vasoconstrictive peptide]",binding of H3K4me3 (promoting gene expression) at the demethylase promoter region,ChIP-PCR (anti-H3K4me3),increases
same,H3K9me3 (suppressing gene expression) at the demethylase promoter region,ChIP-PCR (anti-H3K9me3),detached
